Source: patent US20060193916A1, “Formulations of peptides for periodontal and dental treatments” (Acologix, Inc., priority 2005, published 2006)

Columns and labels:
[1] = system: alveolar bone extraction socket
Source text: One mandibular premolar per side was extracted. The intra-socket septae in the extraction socket were removed and the wound margins adapted.
Treatment Group I (10 dogs-5 per each time point 3 days and 28 days): • a.
Treatment Group 2 (10 dogs-5 per each time point 3 days and 28 days): • a.
Treatment Group 3 (6 dogs-3 per each time point 3 days and 28 days): • a. Right side: create gingival flap around #407; extract #407 (section with 7011); remove intra-socket septa with 5511; radiograph; measure socket depth; soak a collagen sponge in BMP2; apply collagen sponge to socket; close gingival flap with 4-0 maxon. • b. Left side; create gingival flap around #307; extract #307 (section with 701 l); remove intra-socket septa with 551 l; radiograph; measure socket depth; soak a collagen sponge in 100 μl of saline, apply collagen sponge to socket; close gingival flap with 4-0 maxon.
After the specimens were received, the specimens were processed, decalcified and embedded in paraffin. The mandible specimens were stained with Toluidine blue for osteoblast evaluations.
Histopathological assessment of the stained section was done without knowledge of treatment group. Qualitative observations included the analysis of the underlying bone, including any soft tissue, which may have come into contact with the test material formulation. Fibrous tissue encapsulation, cellular infiltrates and inflammatory responses at the repair site and the soft tissues were also evaluated.
Static histomorphometric analysis was performed on sections stained with toluidine blue stain to determine the percent area of bone in-growth present within the samples using an OsteoMeasure® image analysis system, and associate software (version 4.00c). The amount and quality of the newly formed bone was scored for 0-4, respectively, and evaluated collectively. Tissue reaction such as inflammation and presence of fibrous tissue were also evaluated using the respective scoring system.

bone formation = conditions: mice; cited from earlier work
[2] = system: primary mesenchimal stem cell culture; conditions: in vitro; cited from earlier work
bone fracture = conditions: rats; local injection near the fracture site; cited from earlier work
[3] = system: dentin and pulp tissue of teeth with deep class V preparations; assay: Indirect pulp capping study in dogs (deep class V preparations in maxillary teeth)
Procedure: Deep class V preparations were made without penetrating the pulp cavity on the buccal (labial) side of 8 maxillary teeth (2 premolars and 1 molar on each side of the oral cavity in one canine) in 10-month old Beagle dogs. A radiograph was taken to confirm location of the pulp cavity. The cavities (defects) were drilled perpendicular to the tooth axis (pulp cavity). […] The solution was left in the dry cavity for 2 minutes after which the base of the cavity was covered with Vitrebond and the teeth were sealed with composite.
The solution was left in the dry cavity for 2 minutes after which the cavities were filled with cotton and sealed with Cavit. The dogs in Treatment group 2 were re-treated 3× a week for 1 week (the teeth on the left side) or for 2 weeks (the teeth on the right side). […] The solution was left in the dry cavity for 2 minutes after which the cavities were filled with cotton and sealed with Cavit.
The teeth in treatment group 3 were used as negative (saline) or positive (Dycal) controls. Two of the 4 teeth per animal that were used as negative controls were treated with 2 uL saline. The solution was left in the dry cavity for 2 minutes after which the base of the cavity was covered with Vitrebond and the teeth were sealed with composite. The other 2 teeth used as negative control were treated for 15 sec with Scotchbond Etchant (Single Bond adhesive system), washed with water, air dried and treated with 2 uL saline. The solution was left in the dry cavity for 2 minutes after which the base of the cavity was covered with Single Bond, cured with light and the teeth were sealed with composite. The 2 teeth per animal in treatment group 3 that were used as a positive control were treated with Dycal and sealed with composite using standard operating procedures.
After the specimens were received, the specimens were processed, decalcified and embedded in paraffin. The maxilla specimens were stained with Haematoxylin and eosin (H&E) for new dentin formation evaluation. For immunohistochemistry evaluations, the sections were stained with TUNEL assay for evaluation of apoptosis (score 0-4), and CD45 antibody for inflammation evaluations.
Histopathological assessment of the stained section was done without knowledge of treatment group. Qualitative observations included the analysis of the tooth and underlying bone, including any soft tissue, which may have come into contact with the test material formulation. Cellular infiltrates (score 0-16) and inflammatory responses (score 0-4) at the repair site and the soft tissues were also evaluated.

human dental pulp cells = conditions: cited from earlier work
osteoblastic cells = conditions: comparable to growth factors such as BMP and IGF-1; cited from earlier work

TDLQERGDNDISPFSGDGQPFKD [AC-100]
presence of connective tissue and provisional matrix in the defects ([1]; day 3 after the extraction): dose dependent increase
tissue reaction in the extraction sockets ([1]; day 3 after the extraction): dose dependent increase in tissue reaction
percentage of connective tissue in the defects versus saline ([1]; day 28): comparable
quality of the new bone formed in the defect ([1]; day 28): dose dependently increases the quality of the new bone
rate with which the defect is filled with new bone ([1]; day 28): dose dependently decreases the rate
inflammatory response versus saline control ([1]; dog, in vivo): no significant difference
bone growth, multiple re-applications versus single application ([1]; re-applied directly in the extraction sockets): not as effective as the single application regimen
bone growth (bone ingrowth) ([1]; single application at surgery, 1 mg and 10 mg on a collagen sponge, 28 days): caused stimulation of bone growth
in vitro and in vivo bone formation activities (bone formation): comparable to the same activities of fibroblast growth factor (FGF)
proliferation and differentiation of the cells to osteoblasts [2]: dose dependently induce proliferation and differentiation
bone fracture healing (bone fracture): stimulates bone fracture healing
maximum stimulation of new dentin formation, relative to saline ([3]; 200 ug, 3 times per week for one week, day 28): 8 times
new dentin formation compared with Dycal ([3]; 28 days post surgery, highest two doses of AC-100 (20 ug and 200 ug), depending on the application schedule): comparable to or better than Dycal
new dentin formation ([3]; 28 days post surgery, versus saline negative control, single and multiple application schedules): dose dependent stimulation of new dentin formation
number of apoptotic cells in the pulp ([3]; both 3 and 28 days post surgery, almost all doses applied): dose dependently decreased the number of apoptotic cells
new dentin formation, multiple versus single application schedule ([3]; day 28): worked significantly better than the single application one
new dentin formation, single application ([3]; highest dose of AC-100, single application, comparable to Dycal): marginal activity
new dentin formation, sealing with Single Bond+composite versus Vitrebond+Composite ([3]; single application schedule, almost all doses of AC-100): worked markedly better than sealing with Vitrebond+Composite
apoptotic and necrotic cell death in the pulp cavities (study summary) ([3]; summary of Example 1): almost complete reduction of inflammatory reactions as well as apoptotic or necrotic cell death
inflammatory reactions in the pulp cavities (study summary) ([3]; summary of Example 1): almost complete reduction of inflammatory reactions
regeneration of new dentin in the defects (study summary) ([3]; summary of Example 1): superior regeneration of new dentin tissue
pulp tissue reaction at the highest dose ([3]; three days post surgery, 200 ug): completely abolishing the pulp reaction
pulp inflammation ([3]; three days post surgery, almost all doses applied): completely abolishing the pulp inflammation
pulp tissue reaction (inflammatory and fibrosis response) ([3]; three days post surgery, sealed with Single Bond or Vitrebond): dose dependent inhibition of the tissue reaction
proliferation and differentiation of human dental pulp cells (human dental pulp cells): potent activities on proliferation but not differentiation
proliferation and differentiation of osteoblastic cells (osteoblastic cells): potent activities on proliferation and differentiation of osteoblastic cells
